Source: ChEMBL document CHEMBL5647698, “Covalent-Allosteric Inhibitors to Achieve Akt Isoform-Selectivity” (Angew Chem Int Ed Engl, 2019)
Active and inactive are the calls of the source. The rule behind the calls is not given here.

Experiments:
PANC-1 [1] = assay: Downregulation of p-AKT level at serine 473 residue in Akt1 knockout human PANC-1 cells measured after 24 hrs by Western blotting analysis; type: functional, cell-based; details: dose 0.3-5 µM
PANC-1 [2] = assay: Downregulation of p-PRAS40 level at threonine 246 residue in Akt1 knockout human PANC-1 cells measured after 24 hrs by Western blotting analysis; type: functional, cell-based; details: dose 0.3-5 µM
[3] = target: RAC-gamma serine/threonine-protein kinase (Homo sapiens, UniProt Q9Y243)
RAC-gamma serine/threonine-protein kinase, sequence (Q9Y243 whole entry): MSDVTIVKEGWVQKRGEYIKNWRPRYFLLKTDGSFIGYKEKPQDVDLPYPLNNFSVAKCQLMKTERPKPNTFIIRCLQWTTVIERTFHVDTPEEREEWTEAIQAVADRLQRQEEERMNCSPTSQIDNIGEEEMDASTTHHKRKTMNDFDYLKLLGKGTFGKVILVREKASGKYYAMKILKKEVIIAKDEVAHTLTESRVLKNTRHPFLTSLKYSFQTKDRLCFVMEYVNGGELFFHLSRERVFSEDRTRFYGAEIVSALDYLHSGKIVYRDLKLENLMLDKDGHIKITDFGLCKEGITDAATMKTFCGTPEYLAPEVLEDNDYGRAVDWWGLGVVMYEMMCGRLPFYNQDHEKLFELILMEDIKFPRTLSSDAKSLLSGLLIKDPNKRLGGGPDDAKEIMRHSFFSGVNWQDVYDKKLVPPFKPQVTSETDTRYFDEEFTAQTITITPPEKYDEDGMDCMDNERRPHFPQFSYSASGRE
Description: Inhibition of wild-type AKT3 (unknown origin) by HTRF KinEASE assay

[4] = target: RAC-alpha serine/threonine-protein kinase (Homo sapiens, UniProt P31749); assay: biochemical
RAC-alpha serine/threonine-protein kinase, sequence (P31749 whole entry): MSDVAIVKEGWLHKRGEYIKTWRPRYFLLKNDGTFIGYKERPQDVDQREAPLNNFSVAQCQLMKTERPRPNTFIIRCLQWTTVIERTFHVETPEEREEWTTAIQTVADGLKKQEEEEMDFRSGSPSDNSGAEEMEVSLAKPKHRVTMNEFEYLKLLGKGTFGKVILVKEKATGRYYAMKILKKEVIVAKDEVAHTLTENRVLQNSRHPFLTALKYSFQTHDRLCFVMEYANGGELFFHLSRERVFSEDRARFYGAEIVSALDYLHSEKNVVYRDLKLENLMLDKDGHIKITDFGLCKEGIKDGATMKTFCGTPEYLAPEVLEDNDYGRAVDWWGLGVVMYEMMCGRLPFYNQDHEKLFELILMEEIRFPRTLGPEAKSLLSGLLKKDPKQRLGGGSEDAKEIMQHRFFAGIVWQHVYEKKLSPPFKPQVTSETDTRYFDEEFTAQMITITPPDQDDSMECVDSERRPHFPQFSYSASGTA

`C=CC(=O)Nc1ccc2[nH]c(=O)n(C3CCN(Cc4ccc(-c5nc6cc[nH]c(=O)c6cc5-c5ccccc5)cc4)CC3)c2c1` was tested, and the Activity (PANC-1 [1]) was “Active” and the Activity (PANC-1 [2]) was “Active”.
In the case of `Nc1ccc2[nH]c(=O)n(C3CCN(Cc4ccc(-c5[nH]c(=O)c(Cc6ccc(O)cc6)nc5-c5ccccc5)cc4)CC3)c2c1`, the IC50 [3] is reported as 17.7 µM and the IC50 [4] is reported as 5.59 µM.
In the case of `C=CC(=O)Nc1ccc2[nH]c(=O)n(C3CCN(Cc4ccc(-c5[nH]c(=O)c(C)nc5-c5ccccc5)cc4)CC3)c2c1`, the Activity (PANC-1 [1]) is reported as “Active” and the Activity (PANC-1 [2]) is reported as “Active”.
In the case of `C=CC(=O)Nc1ccc2[nH]c(=O)n(C3CCN(Cc4ccc(-c5[nH]c(=O)c(CC(C)C)nc5-c5ccccc5)cc4)CC3)c2c1`, the Activity (PANC-1 [1]) is reported as “Active” and the Activity (PANC-1 [2]) is reported as “Active”.
With `CC(C)Cc1nc(-c2ccccc2)c(-c2ccc(CN3CCC(n4c(=O)[nH]c5ccc(N)cc54)CC3)cc2)[nH]c1=O` the IC50 [4] was 2.83 µM.
